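All cell lines were grown in 96-well plates and treated with compound for 48 hours. TGI: concentration producing complete growth inhibition.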
What was measured:
Assay in all cases: NCI-60 cell line screen, 48 h
NCI-H460 lung = system: NCI-H460 lung
HT29 colon = system: HT29 colon
HOP-92 NSCLC = system: HOP-92 NSCLC
TK-10 renal = system: TK-10 renal
SF-268 CNS = system: SF-268 CNS
KM12 colon = system: KM12 colon
DU-145 prostate = system: DU-145 prostate
ACHN renal = system: ACHN renal
SF-539 CNS = system: SF-539 CNS
CCRF-CEM leukemia = system: CCRF-CEM leukemia

Compound | TGI (NCI-H460 lung) [µM] | TGI (HT29 colon) [µM] | TGI (HOP-92 NSCLC) [µM] | TGI (TK-10 renal) [µM] | TGI (SF-268 CNS) [µM] | TGI (KM12 colon) [µM] | TGI (DU-145 prostate) [µM] | TGI (ACHN renal) [µM] | TGI (SF-539 CNS) [µM] | TGI (CCRF-CEM leukemia) [µM]
CCCCON1C[C@H](OC(C)=O)C(OC(C)=O)[C@H](OC(C)=O)C1 (stereo not given in full) | > 100 | > 100 | > 100 | > 100 | > 100 | > 100 | > 100 | > 100 | > 100 | > 100
Nc1nn2c(nc(N)c3c(N)[nH]nc32)c1N=Nc1ccc(Br)cc1 | > 100 | > 100 | 28.1 | > 100 | 36.1 | > 75.8 | > 100 | > 100 | 49.6 | > 100
Cc1cn([C@@H]2O[C@H](CO[Si](C)(C)C(C)(C)C)[C@]3(O[C@H]3C(=O)NN)[C@H]2O[Si](C)(C)C(C)(C)C)c(=O)[nH]c1=O | 15.6 | 7.79 | 19.7 | 26.9 | 12 | 32.6 | 21.8 | 15.6 | 16.3 | 5.43
CC1C2(C)OC(=N)C(C#N)(C(c3cccc([N+](=O)[O-])c3)O2)C1(C#N)C#N (stereo not given) | 29.7 | 74.6 | 33.1 | > 100 | > 100 | > 100 | > 100 | > 100 | 34.2 | 52.2
Clc1ccc(C2Nc3ccccc3C3=NCCN32)cc1 (stereo not given) | 53 | 38.5 | 34 | 39.5 | 84.5 | 40.2 | > 100 | > 100 | 30.6 | > 100
CN(C)CCCn1nc(N)c2nc3cc(Cl)ccc3nc21 | > 100 | > 100 | 76.7 | > 100 | > 100 | > 100 | > 100 | > 100 | > 100 | 96.5
CCCCCCCCCCCCCCCCOC[C@@H](COC(c1ccccc1)(c1ccccc1)c1ccccc1)O[P+](=S)OC (stereo not given in full) | 5.8 | 35.2 | 26.2 | 23.6 | 28.6 | 19.2 | 30.6 | 29 | 9.45 | 30.1
Oc1ccc(Cl)cc1CN1CCN(Cc2cc(Cl)ccc2O)C1 | 4.96 | 13 | 5.15 | 9.69 | 12.8 | 3.49 | 11.6 | 4.25 | 2.81 | > 100
N#Cc1c(-c2ccccc2)[nH]c(=O)n(C2OC(CO)C(O)C(O)C2O)c1=O (stereo not given) | > 100 | > 100 | > 100 | > 100 | > 100 | > 100 | > 100 | > 100 | > 100 | > 100
O=C(N/N=C1/C(=O)c2c3ccccc3cc3cccc1c23)c1ccccc1 | > 100 | > 87.9 | > 100 | 78.5 | > 91.9 | > 31.6 | > 56.4 | > 67.4 | > 100 | > 100
CCN(CC)CCNC(=O)c1cn2c(ccc3sc4ccccc4c(=O)c32)n1 | 14.9 | 20.4 | 24.6 | 19.1 | 24.8 | 24.9 | 25 | 18.6 | 24.9 | 25.3
COc1ccc(OC)c(NS(=O)(=O)c2ccc3nc(C)n(NS(=O)(=O)c4cc(OC)ccc4OC)c(=O)c3c2)c1 | > 100 | > 100 | > 100 | > 100 | > 100 | > 100 | > 100 | > 100 | > 100 | > 100
CCCCCCCCCCCCOCCCOP(=O)([O-])OCC[N+](C)(C)C | > 70 | 61.7 | 52.8 | 14.9 | 86 | 9.77 | > 75.1 | > 80.2 | 54.9 | 70.2
Cc1c2c(OCCN3CCCCC3)nn(C)c(=O)c2c(C)n1-c1ccccc1 | > 100 | > 100 | > 100 | > 100 | > 100 | > 100 | > 100 | > 100 | 74.9 | > 100
